Data from the NIST ThermoML archive (doi:10.1021/je100057b).
Values joined by “and” are separate entries in the source; they are usually repeats but may differ in a detail not shown here. Equal values may be shown once.

Details: Liquid, Falling or rolling sphere viscometry

CCCCCCC(=O)OCC(COCC(COC(=O)CCCCCC)(COC(=O)CCCCCC)COC(=O)CCCCCC)(COC(=O)CCCCCC)COC(=O)CCCCCC [dipentaerythritol hexaheptanoate]
Details | viscosity
283.15 K, 101.33 kPa | 260.7 mPa·s and 259.1 mPa·s
288.15 K, 101.33 kPa | 191.1 mPa·s and 190 mPa·s
293.15 K, 101.33 kPa | 143.1 mPa·s and 142.2 mPa·s
298.15 K, 101.33 kPa | 109.2 mPa·s and 108.5 mPa·s
303.15 K, 100 kPa | 86.3 mPa·s
303.15 K, 101.33 kPa | 84.89 mPa·s and 84.39 mPa·s
303.15 K, 1000 kPa | 87.7 mPa·s
303.15 K, 5000 kPa | 93.9 mPa·s
303.15 K, 10000 kPa | 102 mPa·s
303.15 K, 20000 kPa | 121 mPa·s
303.15 K, 30000 kPa | 142 mPa·s
303.15 K, 40000 kPa | 167 mPa·s
303.15 K, 50000 kPa | 194 mPa·s
303.15 K, 60000 kPa | 226 mPa·s
308.15 K, 101.33 kPa | 67.04 mPa·s and 66.67 mPa·s
313.15 K, 100 kPa | 55.8 mPa·s
313.15 K, 101.33 kPa | 53.73 mPa·s and 53.45 mPa·s
313.15 K, 1000 kPa | 56.6 mPa·s
313.15 K, 5000 kPa | 60.3 mPa·s
313.15 K, 10000 kPa | 65.3 mPa·s
313.15 K, 20000 kPa | 76.3 mPa·s
313.15 K, 30000 kPa | 88.9 mPa·s
313.15 K, 40000 kPa | 103 mPa·s
313.15 K, 50000 kPa | 119 mPa·s
313.15 K, 60000 kPa | 138 mPa·s
318.15 K, 101.33 kPa | 43.66 mPa·s and 43.45 mPa·s
323.15 K, 101.33 kPa | 35.93 mPa·s and 35.77 mPa·s
328.15 K, 101.33 kPa | 29.91 mPa·s and 29.79 mPa·s
333.15 K, 100 kPa | 25.5 mPa·s
333.15 K, 101.33 kPa | 25.18 mPa·s and 25.07 mPa·s
333.15 K, 1000 kPa | 25.9 mPa·s
333.15 K, 5000 kPa | 27.5 mPa·s
333.15 K, 10000 kPa | 29.6 mPa·s
333.15 K, 20000 kPa | 34.3 mPa·s
333.15 K, 30000 kPa | 39.5 mPa·s
333.15 K, 40000 kPa | 45.3 mPa·s
333.15 K, 50000 kPa | 51.7 mPa·s
333.15 K, 60000 kPa | 58.8 mPa·s
338.15 K, 101.33 kPa | 21.39 mPa·s and 21.31 mPa·s
343.15 K, 101.33 kPa | 18.32 mPa·s and 18.27 mPa·s
348.15 K, 101.33 kPa | 15.82 mPa·s and 15.79 mPa·s
353.15 K, 100 kPa | 13.8 mPa·s
353.15 K, 101.33 kPa | 13.77 mPa·s and 13.75 mPa·s
353.15 K, 1000 kPa | 14 mPa·s
353.15 K, 5000 kPa | 14.8 mPa·s
353.15 K, 10000 kPa | 15.9 mPa·s
353.15 K, 20000 kPa | 18.2 mPa·s
353.15 K, 30000 kPa | 20.8 mPa·s
353.15 K, 40000 kPa | 23.6 mPa·s
353.15 K, 50000 kPa | 26.6 mPa·s
353.15 K, 60000 kPa | 30 mPa·s
358.15 K, 101.33 kPa | 12.06 mPa·s
363.15 K, 101.33 kPa | 10.64 mPa·s
368.15 K, 101.33 kPa | 9.44 mPa·s and 9.45 mPa·s
373.15 K, 100 kPa | 8.46 mPa·s
373.15 K, 101.33 kPa | 8.42 mPa·s and 8.43 mPa·s
373.15 K, 1000 kPa | 8.56 mPa·s
373.15 K, 5000 kPa | 9.04 mPa·s
373.15 K, 10000 kPa | 9.66 mPa·s
373.15 K, 20000 kPa | 11 mPa·s
373.15 K, 30000 kPa | 12.4 mPa·s
373.15 K, 40000 kPa | 14 mPa·s
373.15 K, 50000 kPa | 15.7 mPa·s
373.15 K, 60000 kPa | 17.5 mPa·s

CCCCC(=O)OCC(COCC(COC(=O)CCCC)(COC(=O)CCCC)COC(=O)CCCC)(COC(=O)CCCC)COC(=O)CCCC
Details | viscosity
283.15 K, 101.33 kPa | 259 mPa·s and 257.9 mPa·s
288.15 K, 101.33 kPa | 189.2 mPa·s and 188.5 mPa·s
293.15 K, 101.33 kPa | 141.2 mPa·s and 140.8 mPa·s
298.15 K, 101.33 kPa | 107.6 mPa·s and 107.3 mPa·s
303.15 K, 100 kPa | 85.9 mPa·s
303.15 K, 101.33 kPa | 83.52 mPa·s and 83.31 mPa·s
303.15 K, 1000 kPa | 87.2 mPa·s
303.15 K, 5000 kPa | 93.2 mPa·s
303.15 K, 10000 kPa | 101 mPa·s
303.15 K, 20000 kPa | 119 mPa·s
303.15 K, 30000 kPa | 139 mPa·s
303.15 K, 40000 kPa | 163 mPa·s
303.15 K, 50000 kPa | 189 mPa·s
303.15 K, 60000 kPa | 219 mPa·s
308.15 K, 101.33 kPa | 65.88 mPa·s and 65.72 mPa·s
313.15 K, 100 kPa | 54.3 mPa·s
313.15 K, 101.33 kPa | 52.73 mPa·s and 52.64 mPa·s
313.15 K, 1000 kPa | 55.1 mPa·s
313.15 K, 5000 kPa | 58.8 mPa·s
313.15 K, 10000 kPa | 63.6 mPa·s
313.15 K, 20000 kPa | 74.4 mPa·s
313.15 K, 30000 kPa | 86.6 mPa·s
313.15 K, 40000 kPa | 100 mPa·s
313.15 K, 50000 kPa | 116 mPa·s
313.15 K, 60000 kPa | 133 mPa·s
318.15 K, 101.33 kPa | 42.8 mPa·s and 42.75 mPa·s
323.15 K, 101.33 kPa | 35.18 mPa·s and 35.15 mPa·s
328.15 K, 101.33 kPa | 29.24 mPa·s and 29.25 mPa·s
333.15 K, 100 kPa | 25 mPa·s
333.15 K, 101.33 kPa | 24.55 mPa·s and 24.59 mPa·s
333.15 K, 1000 kPa | 25.4 mPa·s
333.15 K, 5000 kPa | 26.9 mPa·s
333.15 K, 10000 kPa | 29 mPa·s
333.15 K, 20000 kPa | 33.6 mPa·s
333.15 K, 30000 kPa | 38.6 mPa·s
333.15 K, 40000 kPa | 44.2 mPa·s
333.15 K, 50000 kPa | 50.3 mPa·s
333.15 K, 60000 kPa | 56.9 mPa·s
338.15 K, 101.33 kPa | 20.81 mPa·s and 20.88 mPa·s
343.15 K, 101.33 kPa | 17.79 mPa·s and 17.88 mPa·s
348.15 K, 101.33 kPa | 15.34 mPa·s and 15.44 mPa·s
353.15 K, 100 kPa | 13.5 mPa·s
353.15 K, 101.33 kPa | 13.33 mPa·s and 13.42 mPa·s
353.15 K, 1000 kPa | 13.6 mPa·s
353.15 K, 5000 kPa | 14.4 mPa·s
353.15 K, 10000 kPa | 15.45 mPa·s
353.15 K, 20000 kPa | 17.7 mPa·s
353.15 K, 30000 kPa | 20.1 mPa·s
353.15 K, 40000 kPa | 22.8 mPa·s
353.15 K, 50000 kPa | 25.7 mPa·s
353.15 K, 60000 kPa | 28.8 mPa·s
358.15 K, 101.33 kPa | 11.66 mPa·s and 11.76 mPa·s
363.15 K, 101.33 kPa | 10.26 mPa·s and 10.36 mPa·s
368.15 K, 101.33 kPa | 9.08 mPa·s and 9.18 mPa·s
373.15 K, 100 kPa | 8.22 mPa·s
373.15 K, 101.33 kPa | 8.09 mPa·s and 8.18 mPa·s
373.15 K, 1000 kPa | 8.32 mPa·s
373.15 K, 5000 kPa | 8.78 mPa·s
373.15 K, 10000 kPa | 9.38 mPa·s
373.15 K, 20000 kPa | 10.6 mPa·s
373.15 K, 30000 kPa | 12 mPa·s
373.15 K, 40000 kPa | 13.5 mPa·s
373.15 K, 50000 kPa | 15.2 mPa·s
373.15 K, 60000 kPa | 16.9 mPa·s
